# Literature values, collected in US8283364B2, “Compounds which have activity at M1 receptor and their uses in medicine” (Glaxo Group Limited, priority 2005, dated 2012).
# Tests used:
# [1] = tested on: dopamine driven behaviours; settings: amphetamine induced locomotion in rats, apomorphine induced climbing in mice, turning in 6-OH-DA lesioned rats, amphetamine-induced motor unrest in monkeys
# [2] = tested on: A10 and A9 dopamine cell firing; settings: A10 versus A9
compound,measurement,setting,value
CCCCCCOc1nsnc1C1=CCCN(C)C1 [xanomeline],effect on dopamine driven behaviours,[1],reverses a number of dopamine driven behaviours
same,effect on dopamine cell firing,[2],"inhibit A10, but not A9, dopamine cell firing"
same,"effect on psychotic symptoms (suspiciousness, hallucinations, delusions)",psychotic symptoms; Alzheimer's patients,reduce psychotic symptoms
same,side effects,psychotic symptoms; ascribed to relatively non-selective nature of the compound,dose-limiting peripheral cholinergic side effects
